Assay results published in patent publication US11597724B2, “Herbicidally active 3-phenylisoxazoline-5-carboxamides of tetrahydro and dihydrofuran carboxylic acids and esters” (Bayer Aktiengesellschaft, priority 2017, dated 2023).

Tests used:
Type in all cases: in vivo
Setaria viridis = test: Post-emergence herbicidal activity against SETVI; conditions: dosage 320 g/ha, rated about 3 weeks after treatment; for pest or weed control at 320 g/ha: Setaria viridis, 504 h
Method in brief: (§1)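 Greenhouse weeds in sandy loam were sprayed at the one-leaf stage, 2–3 weeks after sowing, with WP or EC formulations plus 0.5% additive at 600 l/ha water. About 3 weeks later, damage was rated visually against untreated controls, where 100% means plants dead and 0% means like control.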

Alopecurus myosuroides = test: Pre-emergence herbicidal activity against ALOMY; conditions: dosage 80 g/ha, scored visually after about 3 weeks vs untreated controls (100% = plants have died, 0% = like control plants); for pest or weed control at 80 g/ha: Alopecurus myosuroides, 504 h
Text: (§2) 1. Pre-Emergence Herbicidal Action and Crop Plant Compatibility Seeds of monocotyledonous and dicotyledonous weed plants and crop plants are placed in plastic or wood fiber pots and covered with soil. The compounds of the invention, formulated in the form of wettable powders (WP) or as emulsion concentrates (EC), are then applied onto the surface of the covering soil as aqueous suspension or emulsion with addition of 0.5% additive at a water application rate of 600 l/ha (converted). After the treatment, the pots are placed in a greenhouse and kept under good growth conditions for the trial plants. After about 3 weeks, the effect of the preparations is scored visually in comparison with untreated controls as percentages. For example, 100% activity=the plants have died, 0% activity=like control plants. ABUTH: Abutilon theophrasti ALOMY: Alopecurus myosuroides

Veronica persica = test: Pre-emergence herbicidal activity against VERPE; conditions: dosage 80 g/ha; for pest or weed control at 80 g/ha: Veronica persica, 504 h
Text: as §2, with “STEME: Stellaria media VERPE: Veronica persica” for “ABUTH: Abutilon theophrasti ALOMY: Alopecurus myosuroides”

Stellaria media = test: Post-emergence herbicidal activity against STEME; conditions: dosage 320 g/ha, rated about 3 weeks after treatment; for pest or weed control at 320 g/ha: Stellaria media, 504 h
Method in brief: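 Greenhouse plants treated at one-leaf stage, 2–3 weeks after sowing, by spraying WP or EC formulations with 0.5% additive at 600 l/ha water. Visual rating about 3 weeks later versus untreated controls (100% = plants dead, 0% = like controls).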

Polygonum convolvulus = test: Post-emergence herbicidal activity against POLCO; conditions: dosage 320 g/ha, rated about 3 weeks after treatment; for pest or weed control at 320 g/ha: Fallopia convolvulus, 504 h
Method in brief: as §1

Avena fatua = test: Post-emergence herbicidal activity against AVEFA; conditions: dosage 320 g/ha, rated about 3 weeks after treatment; for pest or weed control at 320 g/ha: Avena fatua, 504 h
Method in brief: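 Greenhouse pots of sandy loam; plants sprayed at one-leaf stage, 2 to 3 weeks after sowing, with WP or EC formulations in water plus 0.5% additive at 600 l/ha. Activity rated visually after about 3 weeks against untreated controls (100% = plants dead, 0% = like control).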

Abutilon theophrasti = test: Post-emergence herbicidal activity against ABUTH; conditions: dosage 320 g/ha, rated about 3 weeks after treatment; for pest or weed control at 320 g/ha: Abutilon theophrasti, 504 h
Method in brief: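 Greenhouse-grown plants treated at one-leaf stage, 2 to 3 weeks after sowing, with WP or EC formulations sprayed as aqueous suspension/emulsion plus 0.5% additive at 600 l/ha. Activity rated visually about 3 weeks later versus untreated controls (100% = plants dead, 0% = like control).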

COC(=O)[C@H]1C[C@@H](NC(=O)[C@@]2(C)CC(c3cc(F)cc(F)c3)=NO2)CO1 (mixture of isomers) [I-09, methyl cis-4-[[(5R)-3-(3,5-difluorophenyl)-5-methyl-4H-isoxazole-5-carbonyl]amino]tetrahydrofuran-2-carboxylate]
pest or weed control at 320 g/ha (Setaria viridis): 80%
pest or weed control at 80 g/ha (Alopecurus myosuroides): 100%
pest or weed control at 80 g/ha (Veronica persica): 90%
pest or weed control at 320 g/ha (Stellaria media): 90%
pest or weed control at 320 g/ha (Polygonum convolvulus): 80%
pest or weed control at 320 g/ha (Avena fatua): 90%

C=C[C@]1(C(=O)N[C@H]2CO[C@@H](C(=O)OC)C2)CC(c2cc(F)cc(F)c2)=NO1 (mixture of isomers) [I-10, methyl cis-4-[[(5S)-3-(3,5-difluorophenyl)-5-vinyl-4H-isoxazole-5-carbonyl]amino]tetrahydrofuran-2-carboxylate]
pest or weed control at 320 g/ha (Setaria viridis): 90%
pest or weed control at 80 g/ha (Alopecurus myosuroides): 100%
pest or weed control at 80 g/ha (Veronica persica): 100%
pest or weed control at 320 g/ha (Stellaria media): 90%
pest or weed control at 320 g/ha (Abutilon theophrasti): 90%
pest or weed control at 320 g/ha (Polygonum convolvulus): 80%
pest or weed control at 320 g/ha (Avena fatua): 100%

C=C[C@]1(C(=O)N[C@H]2CO[C@@H](C(=O)OCC)C2)CC(c2cc(F)cc(F)c2)=NO1 (mixture of isomers) [I-35, ethyl cis-4-[[(5S)-3-(3,5-difluorophenyl)-5-vinyl-4H-isoxazole-5-carbonyl]amino]tetrahydrofuran-2-carboxylate]
pest or weed control at 320 g/ha (Setaria viridis): 90%
pest or weed control at 80 g/ha (Alopecurus myosuroides): 100%
pest or weed control at 80 g/ha (Veronica persica): 100%
pest or weed control at 320 g/ha (Stellaria media): 90%
pest or weed control at 320 g/ha (Abutilon theophrasti): 80%
pest or weed control at 320 g/ha (Avena fatua): 100%

C=C[C@]1(C(=O)N[C@H]2CO[C@@H](C(=O)OC(C)C)C2)CC(c2cc(F)cc(F)c2)=NO1 (mixture of isomers) [I-36, isopropyl cis-4-[[(5S)-3-(3,5-difluorophenyl)-5-vinyl-4H-isoxazole-5-carbonyl]amino]tetrahydrofuran-2-carboxylate]
pest or weed control at 320 g/ha (Setaria viridis): 80%
pest or weed control at 80 g/ha (Alopecurus myosuroides): 100%
pest or weed control at 80 g/ha (Veronica persica): 100%
pest or weed control at 320 g/ha (Stellaria media): 90%
pest or weed control at 320 g/ha (Abutilon theophrasti): 90%
pest or weed control at 320 g/ha (Polygonum convolvulus): 80%
pest or weed control at 320 g/ha (Avena fatua): 90%

C=C[C@]1(C(=O)N[C@H]2CO[C@@H](C(=O)OCc3ccccc3)C2)CC(c2cc(F)cc(F)c2)=NO1 (mixture of isomers) [I-37, benzyl cis-4-[[(5S)-3-(3,5-difluorophenyl)-5-vinyl-4H-isoxazole-5-carbonyl]amino]tetrahydrofuran-2-carboxylate]
pest or weed control at 320 g/ha (Setaria viridis): 80%
pest or weed control at 80 g/ha (Alopecurus myosuroides): 100%
pest or weed control at 80 g/ha (Veronica persica): 100%
pest or weed control at 320 g/ha (Stellaria media): 90%
pest or weed control at 320 g/ha (Abutilon theophrasti): 80%
pest or weed control at 320 g/ha (Avena fatua): 100%

C=C[C@]1(C(=O)N[C@H]2CO[C@@H](C(=O)OC(C)(C)C)C2)CC(c2cc(F)cc(F)c2)=NO1 (mixture of isomers) [I-38, tert-butyl cis-4-[[(5S)-3-(3,5-difluorophenyl)-5-vinyl-4H-isoxazole-5-carbonyl]amino]tetrahydrofuran-2-carboxylate]
pest or weed control at 320 g/ha (Setaria viridis): 100%
pest or weed control at 80 g/ha (Alopecurus myosuroides): 100%
pest or weed control at 80 g/ha (Veronica persica): 100%
pest or weed control at 320 g/ha (Stellaria media): 90%
pest or weed control at 320 g/ha (Abutilon theophrasti): 80%
pest or weed control at 320 g/ha (Avena fatua): 90%

CC(C)(C)OC(=O)C1CC(NC(=O)C2(C)CC(c3cc(F)cc(F)c3)=NO2)CO1 (mixture of isomers) [I-42]
Post-emergence herbicidal activity against SETVI in % (Setaria viridis): 90%
Pre-emergence herbicidal activity against ALOMY in % (Alopecurus myosuroides): 100%
Pre-emergence herbicidal activity against VERPE in % (Veronica persica): 90%
Post-emergence herbicidal activity against STEME in % (Stellaria media): 90%
Post-emergence herbicidal activity against ABUTH in % (Abutilon theophrasti): 80%
Post-emergence herbicidal activity against POLCO in % (Polygonum convolvulus): 80%
Post-emergence herbicidal activity against AVEFA in % (Avena fatua): 100%

CCOC(=O)C1CC(NC(=O)C2(C)CC(c3cc(F)cc(F)c3)=NO2)CO1 (mixture of isomers) [I-43]
Post-emergence herbicidal activity against SETVI in % (Setaria viridis): 80%
Pre-emergence herbicidal activity against ALOMY in % (Alopecurus myosuroides): 100%
Pre-emergence herbicidal activity against VERPE in % (Veronica persica): 90%
Post-emergence herbicidal activity against STEME in % (Stellaria media): 100%
Post-emergence herbicidal activity against ABUTH in % (Abutilon theophrasti): 80%
Post-emergence herbicidal activity against POLCO in % (Polygonum convolvulus): 80%
Post-emergence herbicidal activity against AVEFA in % (Avena fatua): 100%

CC1(C(=O)NC2COC(C(=O)OCc3ccccc3)C2)CC(c2cc(F)cc(F)c2)=NO1 (mixture of isomers) [I-45]
Post-emergence herbicidal activity against SETVI in % (Setaria viridis): 90%
Pre-emergence herbicidal activity against ALOMY in % (Alopecurus myosuroides): 100%
Pre-emergence herbicidal activity against VERPE in % (Veronica persica): 80%
Post-emergence herbicidal activity against STEME in % (Stellaria media): 90%
Post-emergence herbicidal activity against ABUTH in % (Abutilon theophrasti): 80%
Post-emergence herbicidal activity against POLCO in % (Polygonum convolvulus): 80%
Post-emergence herbicidal activity against AVEFA in % (Avena fatua): 100%

COC(=O)C1CC(NC(=O)C2(C)CC(c3cc(F)cc(F)c3)=NO2)CO1 (mixture of isomers) [I-48]
Post-emergence herbicidal activity against SETVI in % (Setaria viridis): 80%
Pre-emergence herbicidal activity against ALOMY in % (Alopecurus myosuroides): 100%
Pre-emergence herbicidal activity against VERPE in % (Veronica persica): 100%
Post-emergence herbicidal activity against STEME in % (Stellaria media): 90%
Post-emergence herbicidal activity against ABUTH in % (Abutilon theophrasti): 80%
Post-emergence herbicidal activity against POLCO in % (Polygonum convolvulus): 80%
Post-emergence herbicidal activity against AVEFA in % (Avena fatua): 80%

CC(C)(C)OC(=O)[C@H]1C[C@@H](NC(=O)C2(C)CC(c3cccc(F)c3)=NO2)CO1 (mixture of isomers) [I-33, tert-butyl cis-4-[[(5RS)-3-(3-fluorophenyl)-5-methyl-4H-isoxazole-5-carbonyl]amino]tetrahydrofuran-2-carboxylate]
pest or weed control at 320 g/ha (Setaria viridis): 90%
pest or weed control at 80 g/ha (Alopecurus myosuroides): 100%
pest or weed control at 80 g/ha (Veronica persica): 100%
pest or weed control at 320 g/ha (Stellaria media): 90%
pest or weed control at 320 g/ha (Polygonum convolvulus): 80%
pest or weed control at 320 g/ha (Avena fatua): 100%

COC(=O)[C@H]1C[C@@H](NC(=O)C2(OC)CC(c3cc(C)cc(Br)c3)=NO2)CO1 (relative stereo) [I-08, methyl cis-4-[[3-(3-bromo-5-methylphenyl)-5-methoxy-4H-isoxazole-5-carbonyl]amino]tetrahydrofuran-2-carboxylate]
pest or weed control at 320 g/ha (Setaria viridis): 80%
pest or weed control at 80 g/ha (Veronica persica): 90%
pest or weed control at 320 g/ha (Polygonum convolvulus): 80%
pest or weed control at 320 g/ha (Avena fatua): 100%

C=CC1(C(=O)N[C@H]2CO[C@@H](C(=O)O)C2)CC(c2cc(F)cc(F)c2)=NO1 (relative stereo) [I-21, cis-4-[[3-(3,5-difluorophenyl)-5-vinyl-4H-isoxazole-5-carbonyl]amino]tetrahydrofuran-2-carboxylic acid]
pest or weed control at 320 g/ha (Setaria viridis): 80%
pest or weed control at 80 g/ha (Alopecurus myosuroides): 100%
pest or weed control at 80 g/ha (Veronica persica): 100%
pest or weed control at 320 g/ha (Stellaria media): 80%
pest or weed control at 320 g/ha (Avena fatua): 90%

C=C[C@]1(C(=O)NC2COCC2C(=O)OC)CC(c2cc(F)cc(F)c2)=NO1 (stereo partly drawn) [I-26, methyl 4-[[(5S)-3-(3,5-difluorophenyl)-5-vinyl-4H-isoxazole-5-carbonyl]amino]tetrahydrofuran-3-carboxylate]
pest or weed control at 320 g/ha (Setaria viridis): 80%
pest or weed control at 80 g/ha (Alopecurus myosuroides): 100%
pest or weed control at 80 g/ha (Veronica persica): 100%
pest or weed control at 320 g/ha (Stellaria media): 90%
pest or weed control at 320 g/ha (Avena fatua): 90%

COC(=O)C1COCC1NC(=O)C1(OC)CC(c2cc(F)cc(F)c2)=NO1 (stereo not shown) [I-27, methyl 4-[[3-(3,5-difluorophenyl)-5-methoxy-4H-isoxazole-5-carbonyl]amino]tetrahydrofuran-3-carboxylate]
pest or weed control at 320 g/ha (Setaria viridis): 80%
pest or weed control at 80 g/ha (Alopecurus myosuroides): 90%
pest or weed control at 80 g/ha (Veronica persica): 90%
pest or weed control at 320 g/ha (Stellaria media): 80%
pest or weed control at 320 g/ha (Polygonum convolvulus): 80%
pest or weed control at 320 g/ha (Avena fatua): 90%

COC(=O)C1CC(NC(=O)C2(C(C)(F)F)CC(c3cc(F)cc(F)c3)=NO2)CO1 (stereo not shown) [I-49]
Pre-emergence herbicidal activity against ALOMY in % (Alopecurus myosuroides): 100%
Pre-emergence herbicidal activity against VERPE in % (Veronica persica): 100%
Post-emergence herbicidal activity against STEME in % (Stellaria media): 90%
Post-emergence herbicidal activity against POLCO in % (Polygonum convolvulus): 80%
Post-emergence herbicidal activity against AVEFA in % (Avena fatua): 80%
